Measured values taken from US20210332139A1, “MODULATION OF LEUKOCYTE ACTIVITY IN TREATMENT OF NEUROINFLAMMATORY DEGENERATIVE DISEASE” (Leuvas Therapeutics, priority 2013, published 2021).
“And” between values parts separate entries of the source, which are not always exact repeats. Identical values can stand only once.

Columns and labels:
Type in all cases: cell-based
[1] = system: human neutrophils; assay: Rapid adhesion of human neutrophils to fibrinogen and ICAM-1; conditions: 0.1 μM, mean+/−SD
Description: (§1) All data are expressed as the mean+/−SD of bound cells in 0.2 mm^2 from three independent experiments made in duplicate.

[2] = system: mouse neutrophils; assay: Rapid adhesion of mouse neutrophils to fibrinogen and ICAM-1; conditions: fMLP 1 μM, mean+/−SD
Description: as §1

[3] = system: neutrophils; assay: Rapid adhesion of neutrophils, soluble versus fibrillary Aβ1-42; conditions: fMLP, concentration not given, mean+/−SD
Description: Although two-times less efficient than the soluble form, fibrillary Aβ triggered a significant increase of rapid neutrophil adhesion on both ICAM-1 and fibrinogen (Table 8; data are expressed as the mean+/−SD of bound cells in 0.2 mm^2 from three independent experiments made in duplicate).

[4] = system: human neutrophils; assay: Rapid human neutrophil adhesion to ICAM-1, inhibition by bocMLF and PTx; conditions: 0.1 μM fMLP
Protocol: It is known that one of the receptors for Aβ is the receptor for fMLP, formylpeptide chemotactic receptor (FPR). To evaluate the contribution of this GPCR receptor on Aβ-dependent neutrophil adhesion, we inhibited its function using boc-MLF, a formyl-peptide chemotactic receptor antagonist. Human neutrophils were incubated for 2 minutes with buffer (control) or with oligomeric Aβ. 0.1 μM fMLP was used as a positive control. Values are expressed as the mean counts of bound cells in 0.2 mm^2 from three independent experiments in duplicate. Error bars represent SD. […] To exclude the possibility that rapid adhesion triggering was a consequence of a generic plasma membrane alteration due to the lipophilic nature of Aβ, we evaluated rapid adhesion in lymphocytes, which are known to lack fMLP receptors.

[5] = system: LFA-1; assay: LFA-1 affinity state in human neutrophils (conformer-specific antibodies, cytofluorimetry); conditions: 0.1 μM, 10 s, mean fluorescence intensity, ctrl = 1
Description: Neutrophil arrest is rapidly triggered by chemokines or other chemoattractants and is mediated by the binding of LFA-1 integrin to its vascular ligand ICAM-1. Ligation of specific heterotrimeric GPCRs by chemokines induces integrins to undergo a dramatic transition from a bent low-affinity conformation to extended intermediate- and high-affinity conformations, which leads to opening of the ligand-binding pocket. We hypothesized that Aβ may trigger intermediate and/or high affinity state of LFA-1 integrin and studied the effect of Aβ1-42 oligomers on human LFA-1 affinity using KIM127 and 327A conformer-specific antibodies for intermediate- and high-affinity state respectively.
The cells were stimulated for 10 s with 0.5 μmol/L of CXCL12, 0.1 μM fMLP, 20 μM Aβ1-42, or 20 μM Aβ42-1 under stirring at 37° C. After rapid washing, cells were stained with FITC-conjugated secondary polyclonal antibody and analyzed by cytofluorimetric quantification. Data are mean fluorescence intensity +/−SD from three independent experiments.

[6] = system: human neutrophils; assay: Isoluminol chemiluminescence ROS assay, human neutrophils; conditions: human neutrophils on fibrinogen, mean+/−SD
Protocol: One of the mechanisms of neuronal damage by beta-amyloid in Alzheimer's disease is the generation of reactive oxygen species (ROS). We determined whether Aβ1-42 oligomers induce ROS production in neutrophils by using a chemiluminescence assay.
(§2) Isoluminol-based chemiluminescence assays were performed in HGCa in the presence of horseradish peroxidase (HRP) and isoluminol (both from Sigma-Aldrich) in a temperature-controlled Multilabel Count Victor X5 (Perkin Elmer). Assays were run in dark 96 well plates precoated with 250 μg/ml human fibrinogen in HGCa containing (final concentration): 100 μM isoluminol and 8 U/ml HRP. After addition of 1×10^5 human neutrophils or 7.5×10^5 mouse neutrophils, plates were left at 37° C. for 5-10 min and the reaction started by addition of the stimulus. Light emission was recorded every minute.
(§3) We used the chemotactic peptide fMLP as positive control. […] Data are mean+/−SD for three independent experiments.

[7] = system: mouse neutrophils; assay: Isoluminol chemiluminescence ROS assay, mouse neutrophils; conditions: mean+/−SD
Protocol: as §2, §3
Data are mean+/−SD counts per second.

[8] = system: human primary PMNs; assay: Static adhesion of human primary PMNs to ICAM-1 with signaling inhibitors; conditions: 50 nM fMLP, 1 min
Protocol: As a model system, human primary PMNs were isolated form healthy donors stimulated to very rapid adhesion to purified human ICAM-1, ligand for the β2 integrins LFA-1 and Maci. fMLP (the classical chemoattractant) was the positive control. […] PMNs were treated for 30 min. with different concentrations of inhibitors followed by stimulation for 1 min with 50 nM fMLP or with 10 μM Aβ. The number of adherent cells was quantified by computer-assisted evaluation. Statistical analysis was SD.

fMLP
Rapid adhesion to Fibrinogen [1]: 361.5 ± 88.2 bound cells in 0.2 mm^2
Rapid adhesion to ICAM-1 [1]: 203.8 ± 29.2 bound cells in 0.2 mm^2
Rapid adhesion to Fibrinogen [2]: 72.40 ± 14.33 bound cells in 0.2 mm^2
Rapid adhesion to ICAM-1 [2]: 183.6 ± 23.9 bound cells in 0.2 mm^2
Rapid adhesion to Fibrinogen [3]: 285.5 ± 14.6 bound cells in 0.2 mm^2
Rapid adhesion to ICAM-1 [3]: 578.5 ± 66.5 bound cells in 0.2 mm^2
Neutrophil adhesion to ICAM-1, stimulus alone (Ctrl, no inhibitor) [4]: 497.1 ± 33.3 bound cells in 0.2 mm^2 and 484.1 ± 39.7 bound cells in 0.2 mm^2
327A (high-affinity state of LFA-1) [5]: 4.35 ± 0.63
KIM127 (intermediate-affinity state of LFA-1) [5]: 2.94 ± 0.21
ROS generation (chemiluminescence) ([6]; 1 min): 908 ± 137
ROS generation (chemiluminescence) ([6]; 2 min): 783 ± 108
ROS generation (chemiluminescence) ([6]; 3 min): 515 ± 103
ROS generation (chemiluminescence) ([6]; 4 min): 325 ± 158
ROS generation (chemiluminescence) ([6]; 5 min): 272 ± 134
ROS generation (chemiluminescence) ([7]; 1 min): 599 ± 199 counts per second
ROS generation (chemiluminescence) ([7]; 2 min): 231 ± 91 counts per second
ROS generation (chemiluminescence) ([7]; 3 min): 90 ± 17 counts per second
ROS generation (chemiluminescence) ([7]; 4 min): 65 ± 36 counts per second
ROS generation (chemiluminescence) ([7]; 5 min): 59 ± 54 counts per second
Adherent hPMNs to ICAM-1, fMLP, Mean, Control (no inhibitor) [8]: 444.6 and 500.8 and 433.5 and 463.1 and 484.1 and 486.8
